For twelve compounds, IC50 results are on record in article PMC6211254, “Determination of the inhibitory effects of N-methylpyrrole derivatives on glutathione reductase enzyme” (Journal of Enzyme Inhibition and Medicinal Chemistry, 2018).

Molecules are shown by their SMILES. “And” between values parts separate entries of the source, which are not always exact repeats. Equal values may be shown once.

The assay concerns the target T1, GR from baker's yeast (S. cerevisiae) (Saccharomyces cerevisiae, UniProt P41921).
T1 sequence (P41921 17-483 limits assumed): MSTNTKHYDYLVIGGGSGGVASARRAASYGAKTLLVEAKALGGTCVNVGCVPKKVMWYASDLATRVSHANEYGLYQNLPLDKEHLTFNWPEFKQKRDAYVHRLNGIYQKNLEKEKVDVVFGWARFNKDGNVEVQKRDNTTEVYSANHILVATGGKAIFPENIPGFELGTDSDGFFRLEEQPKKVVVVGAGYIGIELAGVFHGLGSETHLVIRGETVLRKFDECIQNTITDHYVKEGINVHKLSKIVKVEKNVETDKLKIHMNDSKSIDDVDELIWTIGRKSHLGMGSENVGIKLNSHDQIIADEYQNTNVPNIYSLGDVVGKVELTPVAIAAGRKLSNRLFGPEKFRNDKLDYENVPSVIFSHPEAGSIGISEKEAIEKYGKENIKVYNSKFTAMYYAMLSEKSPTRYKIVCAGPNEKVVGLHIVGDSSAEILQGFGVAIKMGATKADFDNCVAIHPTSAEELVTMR
Kind of assay: Glutathione reductase inhibition (Beutler's method, NADPH and GSSG as substrates). The format is biochemical. The settings on record: 25 °C, pH 8.0; mean from at least three determinations, errors ±3%; read-out: IC50 values obtained from regression analysis graphs for GR enzyme. The method, then: Activity of the glutathione enzyme was measured by Beutler’s method[22] in which one enzyme unit is defined as the oxidation of […] NADPH per min under the assay condition at 25 °C, pH 8.0. Different concentrations of the inhibitors were applied to the enzyme solutions and all compounds were tested in triplicate at each concentration used[18–21]. Control cuvette activity was assumed as 100% in the absence of inhibitor. A graphic of activity-versus inhibitor concentration was drawn for each compound (Figure 3).
In this work, we reported GR inhibitory capacity of N-methylpyrrole derivatives (8a-r). As known, glutathione reductase has been purified from various organisms and the influences of drugs, pesticides and various chemicals on GR activity have been investigated. In the current study, GR from baker's yeast (S. cerevisiae) was used and the inhibitory potentials of the synthetized compounds were determined using Beutler method with NADPH and GSSG as substrates and further kinetic studies were performed using the same method.
For the compound `Cn1cccc1-c1ccccc1` [Compound 8a], the IC50 turned out to be 4.94 µM.
In the case of `Cc1ccc(-c2cccn2C)cc1` [Compound 8b] it was 1.4 µM; in that of `Cc1cccc(-c2cccn2C)c1` [Compound 8c], 1.66 µM; in that of `Cc1ccccc1-c1cccn1C` [Compound 8d], 1.05 µM.
In the case of `Cn1cccc1-c1ccc(Br)cc1` [Compound 8e] it was 1.5 µM; in that of `Cn1cccc1-c1ccc(F)cc1` [Compound 8i], 1.42 µM.
As to `Cn1cccc1-c1ccccc1[N+](=O)[O-]` [Compound 8m], the 50% inhibitory concentration (IC50) was found to be 0.104 µM.
Regarding `COc1ccccc1-c1cccn1C` [Compound 8n], the IC50 worked out at 0.678 µM.
On to `COc1ccc(-c2cccn2C)cc1` [Compound 8o], for which the IC50 is 0.678 µM and 1.44 µM.
Regarding `Cn1cccc1-c1ccc(OC(F)(F)F)cc1` [Compound 8q], the IC50 was 0.846 µM.
For `Cn1cccc1-c1ccc(C#N)cc1` [Compound 8r], the IC50 was 1.79 µM.
With `O=NN(CCCl)C(=O)NCCCl` [N,N-bis(2-chloroethyl)-N-nitrosourea, reference compound], the IC50 was 645 µM.

For orientation: IC50 means the concentration at which inhibition is half-maximal.
